≈ marks a conversion by molar mass, not a printed value. One block for each compound: values may come before it.
Tests used:
[1] = test system: clinical strains of P. aeruginosa; test: microbe, parasite or virus in culture; type: cell-based, Pseudomonas aeruginosa; conditions: for MIC: Pseudomonas aeruginosa
Description: MICs (μg/ml, x-axis) for each compound are shown below each graph. […] The OD at 600 nm quantitates the extent of bacterial growth. Diamonds=L6K-F17; squares=tobramycin. Incubation: 37° C. for 19-24 hours.
Nine different clinical P. aeruginosa isolates were tested with a representative CAP, L-6KF17.

[2] = test system: clinically isolated P. aeruginosa mucoid strains (biofilm); test: Biofilm antibacterial susceptibility assay, biofilm recovery plate (BICs); type: cell-based, Pseudomonas aeruginosa
Description: (§1) The clinically isolated P. aeruginosa mucoid strains that were used in these experiments are described in Table 1.
(§2) Methods: Prep Work—3 Days Culture the Clinical Mucoid P. aeruginosa Strains Isolated from CF Patients • 1. Freshly subculture the glycerol stock of the strain (stored at −80° C.) by streaking onto a blood agar (3˜4 streaks). Incubate the blood agar plate at 37° C. for 24 hr. The consistency of the mucoid phenotype can be improved by further subculturing (e.g., a total of 3 times, one/day). • 2. The following day, pick a few colonies and streak them onto a fresh blood agar. Note: Every time the cells are cultured using the stock strains (stored at −80° C.), they should be subcultured 3 times in total, and the last blood agar plate is then good for about one week. In the following week, the strains can be re-subcultured from the last agar plate to grow fresh colonies—this needs only to be done once (no need to do it 3 times). If the mucoid phenotype is lost, the glycerol stocks (−80° C.) should be used, and subcultured 3 times. Biofilm Assay—Day 1 Grow Overnight Cell Culture • 1. Inoculate freshly cultured cells (see prep work) in 10 mL TSB, and grow overnight at 37° C. on a shaker. […] Biofilm Assay—Day 2 Biofilm Set-up • 1. Make 0.5 McFarland for each strain/organism (add ˜100 μL O/N culture to 2 mL 50% TSB): • 0.5 McFarland=10^8 CFU/mL. • To calibrate a colourimeter/turbidity meter: • Positive blank: place a solid marker in the holder; turn the left knob to adjust to zero. • Negative blank: use a glass tube containing 50% TSB (1:1 TSB/H2O); adjust the right knob to 100% T. • Non-mucoid strains should be read in the lower ‘red zone’ on a colorimeter/turbidity meter. • Mucoid strains should be a bit heavier, and read in the mid ‘red zone’. • 2. Make bacterial inoculums: to a 50 mL falcon tube, add 300 μL of 0.5 McFarland to 19.7 mL of TSB. • 3. Mix the tube gently by inverting. • 4. In the biosafety fume hood or beside the flame: • Label a 96-well plate: strain and time. • Pour inoculum into a reservoir. • Using the multi-channel pipet, add 150 μL of inoculum into each well, leave the last column empty (last column=negative control, no cells). • Carefully place a peg lid onto the plate, match the cut corners. • 5. Place the plate on a shaker in 37° C. incubator (requires ≥3 h). Checking Biofilm Plate Growth • 1. Check plates periodically using a plate-reader to determine OD readings: • At OD650, aim for ˜0.045-0.050. • Depending on the strain, require 3-28 h to grow. […] Loading Antibiotic Plates • 1. Place the peg lid (containing biofilm growth) of the susceptibility plate into a pre-made 96-well antibiotic plate (see protocol from Day 1; see FIG. 1). Incubate at 37° C. for 24 h. * This will be referred to the planktonic growth plate, which measures the planktonic susceptibility in the biofilm assay, or MICs. * • 2. Place the lid of 96-well antibiotic plate onto the previous susceptibility plate, and keep in the fridge for reference until the experiment is completed. • 3. Proceed to perform inoculum check (see below) Inoculum Check • 1. Purity check: • Take a loopful of bacteria culture from any well of the susceptibility plate. • Spread onto half of a blood agar plate. • Place in the incubator at 37° C. for 24 h. • 2. Inoculum check: • In sterile Eppendorf tubes or liver vials (need 4 per strain), prepare the following dilutions: • a. 10^2: […] from any well of the susceptibility plate. • b. 10^3: 900 μL of H2O and 100 μL of mixture from Step (a). • c. 10^4: 900 μL of H2O and 100 μL of mixture from Step (b). • d. 10^5: 900 μL of H2O and 100 μL of mixture from Step (c). • Split blood agar plates into quadrants: two for 10^4 and two for 10^5. • Take 50 μL from Step (c) or Step (d) and place onto blood agar plates. • Let dry for about 30 min in the hood with the lid closed, and then incubate upside-down at 37° C. for 18˜24 h.

[3] = test system: clinically isolated P. aeruginosa mucoid strains; test: microbe, parasite or virus in culture; conditions: Pseudomonas aeruginosa
Description: as §1, §2

Compound: C[C@H](NC(=O)[C@H](C)NC(=O)[C@H](Cc1ccccc1)NC(=O)[C@H](C)NC(=O)[C@H](C)NC(=O)[C@H](Cc1c[nH]c2ccccc12)NC(=O)[C@H](C)NC(=O)[C@H](C)NC(=O)[C@H](Cc1ccccc1)NC(=O)[C@H](C)NC(=O)[C@H](C)NC(=O)[C@H](CCCCN)NC(=O)[C@H](CCCCN)NC(=O)[C@H](CCCCN)NC(=O)[C@H](CCCCN)NC(=O)[C@H](CCCCN)NC(=O)[C@@H](N)CCCCN)C(N)=O [L-6KF17]
MIC compared with tobramycin ([1]; nine clinical P. aeruginosa isolates): equal to or superior to tobramycin in most cases

MIC ([3]; strain HSC 003B3-1, planktonic): ≤ 0.5 µg/mL
MIC ([3]; strain HSC 020B2-1, planktonic): 1 to 2 µg/mL (≈ 2.61 to 5.22 µM)
MIC ([3]; strain HSC 027B2-3, planktonic): 2 µg/mL (≈ 5.22 µM)
Compound: C[C@@H](O)[C@H]1C(=O)N2C(C(=O)O)=C(S[C@@H]3CN[C@H](C(=O)N(C)C)C3)[C@H](C)[C@H]12 [Meropenem, meropenem]
BIC ([2]; strain HSC 003B3-1, biofilm): ≤0.5 µg/mL
BIC ([2]; strain HSC 020B2-1, biofilm): 2 µg/mL
BIC ([2]; strain HSC 027B2-3, biofilm): 4 µg/mL

MIC ([1]; strain HSC 002B10-2): 1 µg/mL (≈ 2.14 µM)
MIC ([1]; strain HSC 004B1-3): 8 µg/mL (≈ 17.1 µM)
MIC ([1]; strain HSC 007E3-2): 8 µg/mL (≈ 17.1 µM)
MIC ([1]; strain HSC 035B7-1): > 32 µg/mL
MIC ([1]; strain SMH 064B15-2): 2 µg/mL (≈ 4.28 µM)
MIC ([1]; strain SMH 072B5-2): > 32 µg/mL
MIC ([1]; strain SMH 112B41): 2 µg/mL (≈ 4.28 µM)
MIC ([1]; strain SMH 130B12-1): 8 µg/mL (≈ 17.1 µM)
MIC ([1]; strain SMH 154B10-2): 16 µg/mL (≈ 34.2 µM)
MIC ([3]; strain HSC 003B3-1, planktonic): 2 to 8 µg/mL (≈ 4.28 to 17.1 µM)
MIC ([3]; strain HSC 020B2-1, planktonic): 32 to 64 µg/mL (≈ 68.4 to 137 µM)
MIC ([3]; strain HSC 027B2-3, planktonic): > 128 µg/mL
MIC ([3]; strain SMH 022B5-2, planktonic): ≤ 0.5 µg/mL
MIC ([3]; strain SMH 051B3-1, planktonic): ≤ 0.5 µg/mL
MIC ([3]; strain SMH 123E1-1, planktonic): ≤ 0.5 µg/mL
Compound: NC[C@H]1O[C@H](O[C@H]2[C@H](O)[C@@H](O[C@H]3O[C@H](CO)[C@@H](O)[C@H](N)[C@H]3O)[C@H](N)C[C@@H]2N)[C@H](N)C[C@@H]1O [Tobramycin, tobramycin]
BIC ([2]; strain HSC 003B3-1, biofilm): 8 to 64 µg/mL
BIC ([2]; strain HSC 020B2-1, biofilm): 128 µg/mL
BIC ([2]; strain HSC 027B2-3, biofilm): >128 µg/mL
BIC ([2]; strain SMH 022B5-2, biofilm): ≤0.5 µg/mL
BIC ([2]; strain SMH 051B3-1, biofilm): ≤0.5 µg/mL
BIC ([2]; strain SMH 123E1-1, biofilm): 0.5 to 1 µg/mL

From patent US10507227B2, “Cationic antimicrobial peptides” (The Hospital for Sick Children, priority 2014, dated 2019)
